Measurements reported in US20190338251A1, “Skeletal Muscle Precursor Cells and Production Method for Skeletal Muscle Cells” (Takeda Pharmaceutical Company Limited, priority 2016, published 2019).

What was measured:
Type in all cases: cell-based, human
[1] = system: 253G1 cells; test: Study on reagent to be added: fluorescent immunostaining of induced myotube and skeletal muscle cells; conditions: for use of one reagent instead of the reference reagent (CHIR or SB) for induction: 0.5 μM BIO or 10 μM 5B216763 instead of CHIR; for use of one reagent instead of the reference reagent (CHIR or SB) for induction / use of one reagent instead of the reference reagent (SB or FSK) for induction: 1 μM A83-01 instead of SB; for use of combined replacement reagents for induction: several reference reagents (CHIR, SB, DM, FSK) replaced at once; for use of two reagents instead of SB and DM for induction / use of one reagent instead of the reference reagent (SB or FSK) for induction: fibronectin-coated vessel (section 5-2); for use of two reagents instead of SB and DM for induction: 1 μM A83-01 and 0.1 μM LDN193189; for use of one reagent instead of the reference reagent (SB or FSK) for induction: 50 μM dbcAMP instead of FSK
Procedure: According to Reference Example 1, 253G1 cells were plated over a Matrigel-coated culture vessel. Two days thereafter, the E8 medium was replaced with B-27 medium supplemented with 5 μM CHIR and 1% AA to start differentiation (the starting day of differentiation was defined as day 0 of differentiation).
On day 2 of differentiation, the medium was replaced with B-27 medium supplemented with 1% AA, 10 μM SB and 0.5 μM DM. On day 4 of differentiation, the medium was further replaced with B-27 medium supplemented with 1% AA and 10 μM FSK. The culture was continued until day 7 of differentiation.
On day 7 of differentiation, the medium was replaced with DMEM (high glucose) medium supplemented with 10 μM FSK, 5% StemSure Serum Replacement, 1% AA and 1% ITS-G. The culture was continued with the medium replaced every 2 to 3 days.
The cells (skeletal muscle precursor cells) on week 3 of differentiation were cryopreserved in the same way as the method described in Example 3. The cryopreserved cells were thawed, plated, and cultured for 2 days in the same way as the method described in Example 3. Then, the medium was replaced with DMEM (high glucose) medium supplemented with 10 μg/mL FGF2, 10 μM FSK, 1% AA, 5% StemSure Serum Replacement and 1% ITS-G. The culture was continued for 2 weeks with the medium replaced every 2 to 3 days.
The cells thus cultured for 2 weeks were fluorescently immunostained using an antibody recognizing myosin heavy chains (R&D Systems, Inc., clone No.: MF20), an antibody recognizing desmin (Abcam plc.) and Hoechst 33342 for nuclear staining (Dojindo Laboratories). As a result, multinuclear myotube cells costained with both the antibodies were confirmed (FIG. 5, left diagram).
On week 2 of culture, the medium was replaced with growth factor- and FSK-free DMEM (low glucose) medium supplemented with 1% AA, 5% StemSure Serum Replacement and 1% ITS-G, and the culture was continued with the medium replaced. On week 4 of culture, the cells were fluorescently immunostained using an antibody recognizing α-actinin (Sigma-Aldrich Co. LLC), an antibody recognizing dystrophin (Abcam plc.) and Hoechst 33342. As a result, multinuclear skeletal muscle cells were stained (FIG. 5, right diagram).
Various changes in conditions were studied with reference to the experiment described above. The frozen cells on weeks 2 and 4 of culture were similarly fluorescently immunostained and evaluated.
Cells were obtained in the same way as the method described in the preceding section “5-1” except that a culture vessel coated with fibronectin (Sigma-Aldrich Co. LLC) instead of Matrigel was used. After thawing, myotube cells (FIG. 6, left diagram) and skeletal muscle cells (FIG. 6, right diagram) were confirmed on weeks 2 and 4, respectively, of culture.

[2] = system: 253G1 cells; test: Somitic mesoderm marker gene expression on day 7 of differentiation; conditions: 2 to 4 μM CHIR days 0 to 2, then SB (and DM) days 2 to 4, then FSK days 4 to 7
Procedure: (§1) According to Reference Example 1, 253G1 cells were plated over a Matrigel-coated culture vessel. Two days thereafter, the E8 medium was replaced with B-27 medium supplemented with 1 to 6 μM CHIR and 1% AA to start differentiation (the starting day of differentiation was defined as day 0 of differentiation).
(§2) On day 2 of differentiation, change in the expression of pan-mesodermal marker genes BRACHYURY and TBX6 was examined. The change in gene expression was analyzed by the following procedures: total RNA was prepared using RNeasy 96 Kit or RNeasy Mini Kit (Qiagen N.V.), and cDNA was then synthesized from the total RNA using reverse transcriptase (PrimeScript RT reagent kit, Takara Bio Inc.). The obtained cDNA was subjected to real-time PCR using a Taqman probe (Applied Biosystems, Inc.). A sample prepared from the 253G1 cells before the start of differentiation was used as a reference sample. The gene expression levels of BRACHYURY and TBX6 were calculated by the comparative Ct method.
On day 2 of differentiation, the medium was replaced with B-27 medium supplemented with 1% AA and 10 μM SB (and 0.3 to 1 μM DM). On day 4 of differentiation, the medium was further replaced with B-27 medium supplemented with 1% AA and 10 μM FSK. […]
On day 7 of differentiation, the expression levels of somitic mesoderm marker genes PAX3 and PAX7 were measured. […]

[3] = system: 253G1 cells; test: Pan-mesodermal marker gene expression (real-time PCR) on day 2 of differentiation; conditions: CHIR 1 to 6 μM, ratio to undifferentiated iPS cells
Procedure: as §1, §2

Compound | use of one reagent instead of the reference reagent (CHIR or SB) for induction ([1]; Matrigel (section 5-1)) | use of combined replacement reagents for induction ([1]; Matrigel (section 5-1)) | use of two reagents instead of SB and DM for induction [1] | use of one reagent instead of the reference reagent (SB or FSK) for induction [1] | expression of somitic mesoderm marker genes PAX3 and PAX7 [2] | BRACHYURY and TBX6 expression [3] | induction of differentiation into skeletal muscle precursor cells ([1]; Matrigel (section 5-1), 50 μM dbcAMP instead of FSK from day 4 of differentiation)
6-bromoindirubin-3-oxime [BIO] | it was possible | it was possible |  |  |  |  | 
Cn1cc(C2=C(c3ccc(Cl)cc3Cl)C(=O)NC2=O)c2ccccc21 [5B216763, 3-(2,4-dichlorophenyl)-4-(1-methyl-1H-indol-3-yl)-1H-pyrrole-2,5-dione] | it was possible | it was possible |  |  |  |  | 
Cc1cccc(-c2nn(C(=S)Nc3ccccc3)cc2-c2ccnc3ccccc23)n1 [A83-01, 3-(6-methyl-2-pyridinyl)-N-phenyl-4-(4-quinolinyl)-1H-pyrazole-1-carbothioamide] | it was possible | it was possible | it was possible | it was possible |  |  | 
Cc1c[nH]c(-c2cnc(NCCNc3ccc(C#N)cn3)nc2-c2ccc(Cl)cc2Cl)n1 [CHIR, 6-[[2-[[4-(2,4-dichlorophenyl)-5-(4-methyl-1H-imidazol-2-yl)-2-pyrimidinyl]amino]ethyl]amino]nicotinonitrile] |  |  |  |  | high expression | increase in a CHIR concentration-dependent manner | 
Cl.c1ccc2c(-c3cnn4cc(-c5ccc(N6CCNCC6)cc5)cnc34)ccnc2c1 [LDN193189, 4-[6-(4-piperazin-1-yl-phenyl)-pyrazolo[1,5-α]pyrimidin-3-yl]-quinoline hydrochloride] |  | it was possible | it was possible |  |  |  | 
CCCC(=O)Nc1ncnc2c1ncn2[C@@H]1O[C@@H]2COP(=O)(O)O[C@H]2[C@H]1OC(=O)CCC [dbcAMP, dibutyryl cAMP] |  | it was possible |  | it was possible |  |  | it was possible to induce differentiation into skeletal muscle precursor cells
